Data set [1] concerns the target Alpha-2B adrenergic receptor (Homo sapiens) (UniProt P18089). Nature of the data set: Agonist activity at adrenergic a2B receptor (unknown origin) expressed in CHO cells assessed as calcium mobilization at 3 uM. The class given is functional, cell-based.
Data set [2] concerns the target Endothelin-1 receptor (Homo sapiens) (UniProt P25101). Nature of the data set: Agonist activity at endothelin a receptor (unknown origin) expressed in CHO cells assessed as calcium mobilization at 3 uM. The class given is functional, cell-based.
Data set [3] has as its target Alpha-2C adrenergic receptor (Homo sapiens) (UniProt P18825). Nature of the data set: Antagonist activity at adrenergic a2C receptor (unknown origin) expressed in CHO cells assessed as calcium mobilization at 3 uM. It is filed as functional, cell-based.
In data set [4] the target is Histamine H2 receptor (Homo sapiens) (UniProt P25021). Nature of the data set: Antagonist activity at histamine H2 receptor (unknown origin) expressed in CHO cells assessed as calcium mobilization at 3 uM. The class given is functional, cell-based.
The target in data set [5] is T1, Muscarinic acetylcholine receptor M1 (Homo sapiens) (UniProt P11229).
T1 sequence (whole entry): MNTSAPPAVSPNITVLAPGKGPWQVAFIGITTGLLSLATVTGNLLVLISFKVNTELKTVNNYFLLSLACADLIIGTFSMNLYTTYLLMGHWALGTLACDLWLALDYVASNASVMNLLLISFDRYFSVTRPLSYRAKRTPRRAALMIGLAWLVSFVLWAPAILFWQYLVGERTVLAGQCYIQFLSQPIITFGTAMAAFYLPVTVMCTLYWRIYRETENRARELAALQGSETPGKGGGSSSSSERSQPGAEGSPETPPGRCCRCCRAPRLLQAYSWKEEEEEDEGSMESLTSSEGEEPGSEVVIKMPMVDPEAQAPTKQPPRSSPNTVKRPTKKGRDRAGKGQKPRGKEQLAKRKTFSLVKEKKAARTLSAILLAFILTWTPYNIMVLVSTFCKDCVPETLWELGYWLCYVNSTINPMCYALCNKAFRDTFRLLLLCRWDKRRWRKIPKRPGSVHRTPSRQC
Nature of the data set: Agonist activity at human muscarinic M1 acetylcholine receptor expressed in CHO cells assessed as calcium mobilization by FLIPR assay relative to control. The class given is functional, cell-based.

Data set [6] concerns the target Cytochrome P450 2C19 (Homo sapiens, UniProt P33261). Nature of the data set: Inhibition of CYP2C19 (unknown origin). It is filed as ADME.
For data set [7], the target named is Nociceptin receptor (Homo sapiens) (UniProt P41146). Nature of the data set: Antagonist activity at OPRL1 receptor (unknown origin) expressed in CHO cells assessed as calcium mobilization at 3 uM. It is filed as functional, cell-based.
For data set [8], the target named is Muscarinic acetylcholine receptor M3 (Homo sapiens) (UniProt P20309). Nature of the data set: Agonist activity at human muscarinic M3 acetylcholine receptor expressed in CHO cells assessed as calcium mobilization at 30 uM by FLIPR assay. The class given is functional, cell-based.
Data set [9] concerns the target T1, Muscarinic acetylcholine receptor M1 (Homo sapiens). Nature of the data set: Agonist activity at human muscarinic M1 acetylcholine receptor expressed in CHO cells assessed as calcium mobilization at 0.3 uM by FLIPR assay. It is filed as functional, cell-based.
For data set [10], the target named is 5-hydroxytryptamine receptor 5A (Homo sapiens) (UniProt P47898). Briefly: Agonist activity at 5-HT5a receptor (unknown origin) expressed in CHO cells assessed as calcium mobilization at 3 uM. It is filed as functional, cell-based.
Data set [11] can be described thus: Permeability of the compound at pH 7.4 by PAMPA method. The class given is physicochemical. The settings on record: read-out: permeability.
For data set [12], the target named is Adenosine receptor A1 (Homo sapiens) (UniProt P30542). Briefly: Agonist activity at adenosine a1 receptor (unknown origin) expressed in CHO cells assessed as calcium mobilization at 3 uM. It is filed as functional, cell-based.
The target in data set [13] is Histamine H3 receptor (Homo sapiens) (UniProt Q9Y5N1). Nature of the data set: Agonist activity at histamine H3 receptor (unknown origin) expressed in CHO cells assessed as calcium mobilization at 3 uM. The class given is functional, cell-based.
For data set [14], the target named is 5-hydroxytryptamine receptor 1A (Homo sapiens) (UniProt P08908). Nature of the data set: Agonist activity at 5-HT1a receptor (unknown origin) expressed in CHO cells assessed as calcium mobilization at 3 uM. The class given is functional, cell-based.
Data set [15] has as its target 5-hydroxytryptamine receptor 4 (Homo sapiens) (UniProt Q13639). Briefly: Agonist activity at 5-HT4B receptor (unknown origin) expressed in CHO cells assessed as calcium mobilization at 3 uM. It is filed as functional, cell-based.
The target in data set [16] is T2, Muscarinic acetylcholine receptor M4 (Homo sapiens) (UniProt P08173).
T2 sequence (whole entry): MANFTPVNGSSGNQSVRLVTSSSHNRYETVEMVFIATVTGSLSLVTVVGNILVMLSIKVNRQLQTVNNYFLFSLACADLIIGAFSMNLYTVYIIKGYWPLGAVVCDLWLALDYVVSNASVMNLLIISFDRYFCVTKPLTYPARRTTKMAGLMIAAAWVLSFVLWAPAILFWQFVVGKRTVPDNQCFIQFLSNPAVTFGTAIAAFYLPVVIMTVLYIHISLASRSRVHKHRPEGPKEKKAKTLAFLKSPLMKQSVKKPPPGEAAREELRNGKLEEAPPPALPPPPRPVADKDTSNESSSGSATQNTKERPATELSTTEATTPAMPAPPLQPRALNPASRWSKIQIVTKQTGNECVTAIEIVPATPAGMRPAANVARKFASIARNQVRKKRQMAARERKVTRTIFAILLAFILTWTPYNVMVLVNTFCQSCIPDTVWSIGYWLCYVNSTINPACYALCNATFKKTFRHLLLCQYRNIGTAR
Nature of the data set: Partial agonist activity at human muscarinic M4 acetylcholine receptor expressed in CHO cells co-expressing Galpha16 assessed as calcium mobilization at 0.3 uM by FLIPR assay. It is filed as functional, cell-based.

For data set [17], the target named is Alpha-2C adrenergic receptor (Homo sapiens) (UniProt P18825). Briefly: Agonist activity at adrenergic a2C receptor (unknown origin) expressed in CHO cells assessed as calcium mobilization at 3 uM. It is filed as functional, cell-based.
In data set [18] the target is T3, Muscarinic acetylcholine receptor M2 (Homo sapiens) (UniProt P08172).
T3 sequence (whole entry): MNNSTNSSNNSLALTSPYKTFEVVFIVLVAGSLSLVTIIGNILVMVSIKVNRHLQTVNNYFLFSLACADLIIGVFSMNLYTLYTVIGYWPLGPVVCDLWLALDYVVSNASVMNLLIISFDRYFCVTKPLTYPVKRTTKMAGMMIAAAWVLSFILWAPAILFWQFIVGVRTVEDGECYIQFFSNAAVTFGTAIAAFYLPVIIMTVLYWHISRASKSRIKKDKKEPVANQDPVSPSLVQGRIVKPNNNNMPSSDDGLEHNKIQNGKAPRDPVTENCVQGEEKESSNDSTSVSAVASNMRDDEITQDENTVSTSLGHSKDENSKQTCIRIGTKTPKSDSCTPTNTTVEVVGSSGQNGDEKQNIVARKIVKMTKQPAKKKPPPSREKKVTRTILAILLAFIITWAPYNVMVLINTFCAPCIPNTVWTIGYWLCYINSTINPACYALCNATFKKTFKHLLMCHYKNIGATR
Briefly: Agonist activity at human muscarinic M2 acetylcholine receptor expressed in CHO cells co-expressing Galpha16 assessed as calcium mobilization at 0.3 uM by FLIPR assay. It is filed as functional, cell-based.

In data set [19] the target is Cytochrome P450 2D6 (Homo sapiens, UniProt P10635). Briefly: Inhibition of CYP2D6 (unknown origin). The class given is ADME.
Data set [20] deals with Muscarinic acetylcholine receptor M3 (Homo sapiens) (UniProt P20309). Nature of the data set: Agonist activity at human muscarinic M3 acetylcholine receptor expressed in CHO cells assessed as calcium mobilization at 0.3 uM by FLIPR assay. The class given is functional, cell-based.
Data set [21] has as its system P-glycoprotein. Briefly: Binding affinity to p-glycoprotein (unknown origin) assessed as efflux ratio by cell based assay. The settings on record: human, not told. It is filed as ADME.

Structures are written as SMILES.

Chain of Alpha-2C adrenergic receptor (Homo sapiens) (P18825 whole entry): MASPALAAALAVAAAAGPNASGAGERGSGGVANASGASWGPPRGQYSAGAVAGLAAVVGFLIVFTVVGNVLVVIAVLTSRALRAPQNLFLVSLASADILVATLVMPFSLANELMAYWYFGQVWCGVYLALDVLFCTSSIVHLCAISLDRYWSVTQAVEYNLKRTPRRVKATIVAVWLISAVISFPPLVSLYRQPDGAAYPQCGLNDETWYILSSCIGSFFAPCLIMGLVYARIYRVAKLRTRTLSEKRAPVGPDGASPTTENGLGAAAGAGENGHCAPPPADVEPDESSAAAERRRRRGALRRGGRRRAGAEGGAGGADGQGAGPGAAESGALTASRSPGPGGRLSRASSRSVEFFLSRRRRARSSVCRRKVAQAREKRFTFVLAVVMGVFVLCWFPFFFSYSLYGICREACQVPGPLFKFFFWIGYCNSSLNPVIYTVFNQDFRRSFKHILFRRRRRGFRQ
Chain of Muscarinic acetylcholine receptor M3 (Homo sapiens) (P20309 whole entry, looked up): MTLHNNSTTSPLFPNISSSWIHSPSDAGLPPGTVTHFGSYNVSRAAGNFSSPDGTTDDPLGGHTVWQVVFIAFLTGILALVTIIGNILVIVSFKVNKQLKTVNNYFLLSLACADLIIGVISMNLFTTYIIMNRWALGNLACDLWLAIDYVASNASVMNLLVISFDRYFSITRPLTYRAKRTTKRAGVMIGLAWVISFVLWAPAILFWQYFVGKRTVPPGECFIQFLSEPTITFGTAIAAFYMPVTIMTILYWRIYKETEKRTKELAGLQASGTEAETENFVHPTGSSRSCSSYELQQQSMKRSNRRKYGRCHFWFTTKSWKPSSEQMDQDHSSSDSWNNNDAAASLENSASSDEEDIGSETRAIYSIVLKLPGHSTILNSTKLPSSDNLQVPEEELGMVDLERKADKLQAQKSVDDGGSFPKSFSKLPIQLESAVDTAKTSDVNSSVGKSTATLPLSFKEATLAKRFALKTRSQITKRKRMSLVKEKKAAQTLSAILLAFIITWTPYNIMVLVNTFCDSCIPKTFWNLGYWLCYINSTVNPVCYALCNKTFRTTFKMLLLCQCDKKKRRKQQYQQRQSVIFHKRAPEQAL
Chain of 5-hydroxytryptamine receptor 5A (Homo sapiens) (P47898 whole entry): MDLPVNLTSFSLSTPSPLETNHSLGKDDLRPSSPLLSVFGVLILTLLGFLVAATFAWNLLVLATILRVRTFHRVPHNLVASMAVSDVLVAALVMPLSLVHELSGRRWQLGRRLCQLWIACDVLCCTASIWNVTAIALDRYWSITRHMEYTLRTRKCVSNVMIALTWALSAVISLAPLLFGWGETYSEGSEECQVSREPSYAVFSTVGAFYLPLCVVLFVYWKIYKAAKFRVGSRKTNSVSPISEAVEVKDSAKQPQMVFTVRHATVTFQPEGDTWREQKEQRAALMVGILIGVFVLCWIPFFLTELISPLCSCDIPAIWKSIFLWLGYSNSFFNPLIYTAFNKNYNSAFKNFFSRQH
Chain of Cytochrome P450 2D6 (P10635 whole entry): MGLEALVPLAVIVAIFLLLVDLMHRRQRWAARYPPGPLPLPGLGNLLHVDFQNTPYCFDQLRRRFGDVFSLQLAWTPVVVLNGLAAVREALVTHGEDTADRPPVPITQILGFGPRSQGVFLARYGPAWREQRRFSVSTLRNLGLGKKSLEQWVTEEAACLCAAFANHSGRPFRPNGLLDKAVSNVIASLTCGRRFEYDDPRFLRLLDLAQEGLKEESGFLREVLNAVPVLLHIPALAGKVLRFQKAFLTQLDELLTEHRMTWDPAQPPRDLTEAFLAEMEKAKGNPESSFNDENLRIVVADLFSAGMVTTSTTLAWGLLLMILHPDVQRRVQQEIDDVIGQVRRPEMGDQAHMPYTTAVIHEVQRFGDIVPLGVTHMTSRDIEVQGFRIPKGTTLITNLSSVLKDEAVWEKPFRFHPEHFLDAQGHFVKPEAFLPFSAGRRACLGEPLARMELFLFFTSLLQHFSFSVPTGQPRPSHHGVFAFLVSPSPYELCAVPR
Chain of Alpha-2B adrenergic receptor (Homo sapiens) (P18089 whole entry): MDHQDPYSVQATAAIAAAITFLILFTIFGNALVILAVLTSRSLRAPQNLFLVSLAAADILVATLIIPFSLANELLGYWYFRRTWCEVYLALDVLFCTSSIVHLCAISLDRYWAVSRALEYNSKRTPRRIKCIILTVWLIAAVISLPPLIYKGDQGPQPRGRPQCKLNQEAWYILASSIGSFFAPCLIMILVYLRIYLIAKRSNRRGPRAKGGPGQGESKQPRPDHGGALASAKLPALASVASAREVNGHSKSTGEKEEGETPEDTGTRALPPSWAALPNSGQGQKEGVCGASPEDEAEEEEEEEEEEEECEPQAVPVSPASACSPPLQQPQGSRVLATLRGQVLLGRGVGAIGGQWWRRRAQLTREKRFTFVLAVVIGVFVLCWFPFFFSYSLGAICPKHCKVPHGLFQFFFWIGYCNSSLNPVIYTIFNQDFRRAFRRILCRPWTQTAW
Chain of Adenosine receptor A1 (Homo sapiens) (P30542 whole entry): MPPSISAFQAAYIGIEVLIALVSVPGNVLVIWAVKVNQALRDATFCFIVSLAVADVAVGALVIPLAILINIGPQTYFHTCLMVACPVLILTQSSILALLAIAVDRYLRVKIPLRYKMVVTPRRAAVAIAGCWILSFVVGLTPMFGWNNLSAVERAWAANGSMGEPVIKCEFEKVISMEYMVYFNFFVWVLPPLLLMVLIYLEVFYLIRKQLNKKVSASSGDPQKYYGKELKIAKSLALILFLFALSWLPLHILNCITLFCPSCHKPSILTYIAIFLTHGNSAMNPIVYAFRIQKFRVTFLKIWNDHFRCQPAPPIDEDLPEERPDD
Chain of 5-hydroxytryptamine receptor 4 (Homo sapiens) (Q13639 whole entry): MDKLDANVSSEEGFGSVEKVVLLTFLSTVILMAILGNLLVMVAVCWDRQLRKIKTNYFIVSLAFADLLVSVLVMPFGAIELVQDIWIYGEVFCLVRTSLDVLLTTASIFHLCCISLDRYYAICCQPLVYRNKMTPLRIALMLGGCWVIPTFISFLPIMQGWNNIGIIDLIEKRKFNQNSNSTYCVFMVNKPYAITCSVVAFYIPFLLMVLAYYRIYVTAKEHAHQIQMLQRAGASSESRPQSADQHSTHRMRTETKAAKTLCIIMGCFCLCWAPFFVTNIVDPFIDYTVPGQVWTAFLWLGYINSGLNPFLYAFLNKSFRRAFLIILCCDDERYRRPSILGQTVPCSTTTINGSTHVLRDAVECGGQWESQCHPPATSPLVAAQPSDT
Chain of Histamine H3 receptor (Homo sapiens) (Q9Y5N1 whole entry): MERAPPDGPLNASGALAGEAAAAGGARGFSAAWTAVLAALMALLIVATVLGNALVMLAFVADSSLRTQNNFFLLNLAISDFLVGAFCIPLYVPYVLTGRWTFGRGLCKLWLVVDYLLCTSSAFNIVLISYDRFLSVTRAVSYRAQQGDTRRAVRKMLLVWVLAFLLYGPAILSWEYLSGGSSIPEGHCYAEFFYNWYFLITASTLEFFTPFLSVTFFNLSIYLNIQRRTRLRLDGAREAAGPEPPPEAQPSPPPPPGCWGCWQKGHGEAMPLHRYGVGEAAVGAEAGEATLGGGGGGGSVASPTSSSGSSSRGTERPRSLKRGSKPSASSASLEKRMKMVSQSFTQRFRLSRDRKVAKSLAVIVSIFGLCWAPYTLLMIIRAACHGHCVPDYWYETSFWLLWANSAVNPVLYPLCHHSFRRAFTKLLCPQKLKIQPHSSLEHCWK
Chain of Histamine H2 receptor (Homo sapiens) (P25021 whole entry): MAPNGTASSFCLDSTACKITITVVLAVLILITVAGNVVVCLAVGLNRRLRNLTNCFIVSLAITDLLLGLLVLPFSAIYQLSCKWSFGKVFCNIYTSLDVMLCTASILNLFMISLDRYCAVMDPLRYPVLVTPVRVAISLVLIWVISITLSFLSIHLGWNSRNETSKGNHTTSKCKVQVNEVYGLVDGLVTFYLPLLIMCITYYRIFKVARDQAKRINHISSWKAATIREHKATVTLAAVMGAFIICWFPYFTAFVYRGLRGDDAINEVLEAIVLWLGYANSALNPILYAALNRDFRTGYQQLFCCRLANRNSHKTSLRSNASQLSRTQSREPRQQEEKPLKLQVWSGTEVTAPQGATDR
Chain of Endothelin-1 receptor (Homo sapiens) (P25101 whole entry): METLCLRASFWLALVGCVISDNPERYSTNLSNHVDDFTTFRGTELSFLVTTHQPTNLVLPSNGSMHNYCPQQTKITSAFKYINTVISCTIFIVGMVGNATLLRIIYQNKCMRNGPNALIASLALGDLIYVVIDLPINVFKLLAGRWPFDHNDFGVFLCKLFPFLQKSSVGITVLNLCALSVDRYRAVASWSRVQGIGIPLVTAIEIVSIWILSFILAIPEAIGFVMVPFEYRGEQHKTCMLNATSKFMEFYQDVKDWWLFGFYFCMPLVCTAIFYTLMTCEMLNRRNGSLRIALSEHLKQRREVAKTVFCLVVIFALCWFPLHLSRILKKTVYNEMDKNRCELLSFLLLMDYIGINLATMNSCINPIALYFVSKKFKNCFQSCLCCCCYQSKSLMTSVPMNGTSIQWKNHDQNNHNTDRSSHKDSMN
Chain of 5-hydroxytryptamine receptor 1A (Homo sapiens) (P08908 whole entry): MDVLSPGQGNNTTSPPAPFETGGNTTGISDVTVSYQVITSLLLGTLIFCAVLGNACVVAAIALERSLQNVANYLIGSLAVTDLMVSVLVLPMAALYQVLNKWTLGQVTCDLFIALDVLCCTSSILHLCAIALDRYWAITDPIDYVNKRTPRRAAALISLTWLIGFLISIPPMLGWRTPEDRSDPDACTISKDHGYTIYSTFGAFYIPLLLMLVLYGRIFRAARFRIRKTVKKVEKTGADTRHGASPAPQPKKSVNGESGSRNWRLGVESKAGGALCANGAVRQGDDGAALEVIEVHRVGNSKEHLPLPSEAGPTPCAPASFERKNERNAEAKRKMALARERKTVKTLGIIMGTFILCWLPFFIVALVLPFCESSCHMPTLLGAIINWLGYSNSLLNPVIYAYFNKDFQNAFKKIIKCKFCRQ

For the molecule `CCOC(=O)N1[C@@H]2CC[C@H]1C[C@H](CN1CC[C@@H](N3Cc4ccccc4NC3=O)C1)C2`, the Activity in data set [1] is -0.18%; in data set [2] it was 0.27%; in data set [5] it was 84%; in [8], 2%; in [9] it was 81%; in [10], -1.06%. Besides, the Activity in [12] is -0.25%; in data set [13], -0.38%; in data set [14] it was 0.06%; in data set [15], -1.42%; in [16], 49%; in data set [17], -0.89%. Also, the Activity in data set [18] came to 1%; in [20], 2%. Moreover, the inhibition is 6.45% in data set [3], 5.27% in data set [4] and -4.61% in [7]. Also, the IC50 in data set [6] and in data set [19] was over 2 µM in each case. The Papp in data set [11] is 53.8 ×10⁻⁶ cm/s. Besides, the efflux ratio in data set [21] came out at 1.

The record behind these values is ChEMBL document CHEMBL3632469, “Discovery of dihydroquinazolinone derivatives as potent, selective, and CNS-penetrant M(1) and M(4) muscarinic acetylcholine receptors agonists” (Bioorg Med Chem Lett, 2015).
